{
  "source": "ChEMBL document CHEMBL4706559",
  "about": "“New indolylarylsulfone non-nucleoside reverse transcriptase inhibitors show low nanomolar inhibition of single and double HIV-1 mutant strains” (Eur J Med Chem, 2020)",
  "key": {"[1]": {"test_system": "Human immunodeficiency virus 1", "assay": "Antiviral activity against HIV-1 NL4-3 infected in human MT-4 cells assessed as virus induced cytopathic effect by MTT assay", "format": "functional, organism-based", "conditions": "Human immunodeficiency virus 1, NL4-3, MT4"}, "[2]": {"assay": "Selectivity ratio of CC50 for human MT4 cells to EC50 for antiviral activity against HIV-1 NL4-3 infected in human MT4 cells", "format": "toxicity, cell-based", "conditions": "read-out: Ratio CC50/EC50"}, "[3]": {"test_system": "Human immunodeficiency virus 1", "assay": "Antiviral activity against HIV1 harboring RT K103N mutant infected in human MT4 cells assessed as protection against virus-induced cytopathic effect by MTT assay", "format": "functional, organism-based", "conditions": "Human immunodeficiency virus 1, MT4"}, "[4]": {"test_system": "Human immunodeficiency virus 1", "assay": "Antiviral activity against HIV1 harboring RT K103N/Y181C double mutant infected in human MT4 cells assessed as protection against virus-induced cytopathic effect by MTT assay", "format": "functional, organism-based", "conditions": "Human immunodeficiency virus 1, MT4"}, "[5]": {"biological_target": "Human immunodeficiency virus type 1 reverse transcriptase (Human immunodeficiency virus 1, UniProt Q72547, K103N)", "assay": "Inhibition of RNA-dependent DNA polymerase activity of recombinant HIV-1 p66/p51 reverse transcriptase K103N mutant assessed as inhibition of [3H]dTTP incorporation using poly(rA)/oligo(dT) as templates incubated for 15 mins by MicroBeta scintillation counting method"}, "[6]": {"biological_target": "Human immunodeficiency virus type 1 reverse transcriptase (Human immunodeficiency virus 1) (UniProt Q72547)", "assay": "Inhibition of wild type HIV1 p66/p51 reverse transcriptase assessed as apparent Vmax at 75 nM using 10 to 500 uM poly(rA)/oligo(dT) as templates in presence of fixed concentration of [3H]dTTP by Michaelis-Menten analysis (reference value: 10 +/- 0.5%)"}, "[7]": {"biological_target": "Human immunodeficiency virus type 1 reverse transcriptase (Human immunodeficiency virus 1) (UniProt Q72547)", "assay": "Inhibition of wild type HIV1 p66/p51 reverse transcriptase assessed as apparent Vmax at 150 nM using 10 to 500 uM poly(rA)/oligo(dT) as templates in presence of fixed concentration of [3H]dTTP by Michaelis-Menten analysis (reference value: 10 +/- 0.5%)"}, "[8]": {"test_system": "Human immunodeficiency virus 1", "assay": "Inhibition of HIV1 p66/p51 reverse transcriptase K103N/Y181C double mutant assessed as apparent Vmax at 300 nM using 10 to 500 uM poly(rA)/oligo(dT) as templates in presence of fixed concentration of [3H]dTTP by Michaelis-Menten analysis (reference value: 12 +/- 1%)"}, "[9]": {"test_system": "Human immunodeficiency virus 1", "assay": "Inhibition of HIV1 p66/p51 reverse transcriptase K103N/Y181C double mutant assessed as apparent Km of substrate at 75 nM using […] as templates in presence of fixed concentration of [3H]dTTP by Michaelis-Menten analysis (reference value: 106+/- 16 nM)"}, "[10]": {"test_system": "Human immunodeficiency virus 1", "assay": "Inhibition of HIV1 p66/p51 reverse transcriptase K103N/Y181C double mutant assessed as apparent Km of substrate at 150 nM using […] as templates in presence of fixed concentration of [3H]dTTP by Michaelis-Menten analysis (reference value: 106+/- 16 nM)"}, "[11]": {"biological_target": "Human immunodeficiency virus type 1 reverse transcriptase (Human immunodeficiency virus 1) (UniProt Q72547)", "assay": "Inhibition of wild type HIV1 p66/p51 reverse transcriptase assessed as apparent Vmax at 30 nM using fixed concentration of poly(rA)/oligo(dT) as templates in presence of 2 to 100 uM of [3H]dTTP by Michaelis-Menten analysis (reference value: 9.7 +/- 12%)"}, "[12]": {"test_system": "Human immunodeficiency virus 1", "assay": "Inhibition of HIV1 p66/p51 reverse transcriptase K103N/Y181C double mutant assessed as apparent Vmax at 75 nM using fixed concentration of poly(rA)/oligo(dT) as templates in presence of 2 to 100 uM of [3H]dTTP by Michaelis-Menten analysis (reference value: 9.6 +/- 0.4%)"}, "[13]": {"test_system": "Human immunodeficiency virus 1", "assay": "Inhibition of HIV1 p66/p51 reverse transcriptase K103N/Y181C double mutant assessed as apparent Km of substrate at 75 nM using fixed concentration of poly(rA)/oligo(dT) as templates in presence of 2 to 100 uM of [3H]dTTP by Michaelis-Menten analysis (reference value: 9.2 +/- 1.4 uM)"}, "[14]": {"test_system": "Human immunodeficiency virus 1", "assay": "Inhibition of HIV1 p66/p51 reverse transcriptase K103N/Y181C double mutant assessed as apparent Km of substrate at 300 nM using fixed concentration of poly(rA)/oligo(dT) as templates in presence of 2 to 100 uM of [3H]dTTP by Michaelis-Menten analysis (reference value: 9.2 +/- 1.4 uM)"}, "[15]": {"biological_target": "Human immunodeficiency virus type 1 reverse transcriptase (Human immunodeficiency virus 1, UniProt Q72547)", "assay": "Binding affinity to free form of wild type HIV-1 p66/p51 reverse transcriptase using poly(rA)/oligo(dT) as templates in presence of [3H]dTTP"}, "[16]": {"assay": "Binding affinity to HIV-1 p66/p51 reverse transcriptase K103N/Y181C double mutant/nucleic acid binary complex using poly(rA)/oligo(dT) as templates in presence of [3H]dTTP", "parameters": "species or system Human immunodeficiency virus 1"}, "[17]": {"assay": "Binding affinity to HIV-1 p66/p51 reverse transcriptase K103N/Y181C double mutant/nucleic acid/dTTP ternary complex using poly(rA)/oligo(dT) as templates in presence of [3H]dTTP", "parameters": "species or system Human immunodeficiency virus 1"}, "[18]": {"biological_target": "Human immunodeficiency virus type 1 reverse transcriptase (Human immunodeficiency virus 1) (UniProt Q72547)", "assay": "Binding affinity to wild type HIV-1 p66/p51 reverse transcriptase/nucleic acid binary complex assessed as association constant using poly(rA)/oligo(dT) as templates in presence of [3H]dTTP"}, "[19]": {"biological_target": "Human immunodeficiency virus type 1 reverse transcriptase (Human immunodeficiency virus 1) (UniProt Q72547)", "assay": "Binding affinity to wild type HIV-1 p66/p51 reverse transcriptase/nucleic acid/dTTP ternary complex assessed as association constant using poly(rA)/oligo(dT) as templates in presence of [3H]dTTP"}, "[20]": {"test_system": "Human immunodeficiency virus 1", "assay": "Binding affinity to HIV-1 p66/p51 reverse transcriptase K103N/Y181C double mutant/nucleic acid/dTTP ternary complex assessed as association constant using poly(rA)/oligo(dT) as templates in presence of [3H]dTTP"}, "[21]": {"test_system": "Human immunodeficiency virus 1", "assay": "Binding affinity to HIV-1 p66/p51 reverse transcriptase K103N/Y181C double mutant/nucleic acid binary complex assessed as dissociation constant using poly(rA)/oligo(dT) as templates in presence of [3H]dTTP"}, "[22]": {"test_system": "Human immunodeficiency virus 1", "assay": "Synergistic inhibition of HIV-1 p66/p51 reverse transcriptase K103N/Y181C double mutant assessed as combination index using poly(rA)/oligo(dT) as templates in presence of [3H]dTTP preincubated with enzyme and AZTTP followed by substrate addition", "format": "functional"}, "[23]": {"test_system": "Human immunodeficiency virus 1", "assay": "Synergistic inhibition of wild type HIV-1 p66/p51 reverse transcriptase assessed as combination index using poly(rA)/oligo(dT) as templates in presence of [3H]dTTP preincubated enzyme with nucleic acid followed by addition of AZTTP and subsequent incubation with compound and dTTP"}, "[24]": {"biological_target": "Human immunodeficiency virus type 1 reverse transcriptase (Human immunodeficiency virus 1) (UniProt Q72547)", "assay": "Ratio of Kon of wild type HIV-1 p66/p51 reverse transcriptase/nucleic acid binary complex to Kon of free form of wild type HIV-1 p66/p51 reverse transcriptase using poly(rA)/oligo(dT) as templates in presence of [3H]dTTP"}, "[25]": {"test_system": "Human immunodeficiency virus 1", "assay": "Ratio of Koff of HIV-1 p66/p51 reverse transcriptase K103N/Y181C double mutant/nucleic acid/dTTP ternary complex to Koff of free form of HIV-1 p66/p51 reverse transcriptase using poly(rA)/oligo(dT) as templates in presence of [3H]dTTP"}},
  "note": "pEC50, pIC50, pKi: −log10 of the molar value.",
  "data": [
    {"smiles": "Cc1cc(C)cc(S(=O)(=O)c2c(C(=O)NCc3ccccc3O)[nH]c3ccc(Cl)cc23)c1", "values": [
      {"measurement": "pEC50", "setting": "[1]", "result": "> 9.15"},
      {"measurement": "selectivity ratio", "setting": "[2]", "result": "> 39700"},
      {"measurement": "pEC50", "setting": "[3]", "result": "> 9.15"},
      {"measurement": "pEC50", "setting": "[4]", "result": 8.21},
      {"measurement": "pIC50", "setting": "[5]", "result": 7.14},
      {"measurement": "Vmax(app)", "setting": "[6]", "result": 3.3, "unit": "%"},
      {"measurement": "Vmax(app)", "setting": "[7]", "result": 1.2, "unit": "%"},
      {"measurement": "Vmax(app)", "setting": "[8]", "result": 3.2, "unit": "%"},
      {"measurement": "Km", "setting": "[9]", "result": 0.108, "unit": "µM"},
      {"measurement": "Km", "setting": "[10]", "result": 0.125, "unit": "µM"},
      {"measurement": "Vmax(app)", "setting": "[11]", "result": 5.6, "unit": "%"},
      {"measurement": "Vmax(app)", "setting": "[12]", "result": 6.2, "unit": "%"},
      {"measurement": "Km", "setting": "[13]", "result": 5.8, "unit": "µM"},
      {"measurement": "Km", "setting": "[14]", "result": 1.9, "unit": "µM"},
      {"measurement": "pKi", "setting": "[15]", "result": 7.51},
      {"measurement": "pKi", "setting": "[16]", "result": 7.07},
      {"measurement": "pKi", "setting": "[17]", "result": 7.11},
      {"measurement": "K", "setting": "[18]", "result": "96 10^-5/nM/s"},
      {"measurement": "K", "setting": "[19]", "result": "15 10^-5/nM/s"},
      {"measurement": "K", "setting": "[20]", "result": "42 10^-5/nM/s"},
      {"measurement": "K", "setting": "[21]", "result": "8 10^-3/s"},
      {"measurement": "CI", "setting": "[22]", "result": 0.81},
      {"measurement": "CI", "setting": "[23]", "result": 0.75},
      {"measurement": "Ratio", "setting": "[24]", "result": 7},
      {"measurement": "Ratio", "setting": "[25]", "result": 4}
    ]}
  ]
}
